Measured values published in patent US8741889B2, “Method of treating non-small cell lung cancer and colon cancer with gamma-secretase inhibitor” (Hoffmann-La Roche Inc, priority 2008, dated 2014).

Key:
[1] = test system: BxPC3 pancreatic xenografts; test: Antitumor efficacy in BxPC3 pancreatic xenografts in SCID-beige mice; assay type: in vivo
Experimental: Female (athymic nu/nu) nude mice were obtained from Charles River Laboratories (Wilmington, Mass.), while female SCID-beige mice were purchased from Taconic (Germantown, N.Y.). Mice were used when they were approximately 8-12 weeks old (nudes) or 8-10 weeks old (SCID-beige), and weighed approximately 23-25 grams. The health of all animals was determined daily by gross observation of experimental animals and by the analyses of blood samples of sentinel animals that were housed on the shared shelf racks. All animals were allowed to acclimate and recover from any shipping related stress for a minimum of 72 hours prior to experimental use. Autoclaved water and irradiated food [5058-ms Pico chow (mouse) Purina, Richmond, Ind.] were provided ad libitum, and the animals were maintained on a 12 hour light and dark cycle. Cages, bedding and water bottles were autoclaved before use and were changed weekly. MiaPaca2, AsPC1 and BxPC3 human pancreatic carcinoma cells were purchased from ATCC (Manassas, Va.). BxPC3 and AsPC1 cells were grown in RPMI medium and MiaPaca2 cells were grown in Dulbecco's Modified Essential Medium (DMEM). All culture media were supplemented with 10% (v/v) FBS and 1% (v/v) […]. […] SCID-biege mice were implanted se with 5×10^6 BxPC3 cells in a 1:1 mixture of matrigel:PBS in a volume of 0.2 ml per mouse in the right hind flank on May 22, 2007. […] Formulated compound and vehicle were stored at 4° C. and prepared weekly. The suspension was mixed vigorously prior to administration. Gemcitabine (Gemzar®, Eli Lilly and Company, Indianapolis, Ind., USA) was reconstituted with sterile saline to yield a stock solution of 38 mg/ml for the entire 3-4 week study. […] Nude mice implanted with MiaPaca2 or AsPC1 xenografts were randomized on day 17 and day 9 post cell implant, respectively. SCID-beige mice bearing BxPC3 xenografts were randomized 8 days post implant. […] Treatment for the MiaPaca2 study began on Feb. […] For the MiaPaca2 and AsPC1 studies, qd Compound (1) suspension or q3d gemcitabine treatment ended on day 37 post tumor cell implant, whereas for the BxPC3 study, qd Compound (1) suspension or q3d gemcitabine treatment ended on day 35 post tumor cell implant. Efficacy data was graphically represented as the mean tumor volume+standard error of the mean (SEM). Tumor volumes of treated groups were presented as percentages of tumor volumes of the control groups (% T/C), using the formula: 100×((T−T0)/(C−C0)), where T represented mean tumor volume of a treated group on a specific day during the experiment, T0 represented mean tumor volume of the same treated group on the first day of treatment; C represented mean tumor volume of a control group on the specific day during the experiment, and C0 represented mean tumor volume of the same treated group on the first day of treatment. Tumor volume (in cubic millimeters) was calculated using the ellipsoid formula: (D×(d2))/2 where ‘D’ represents the large diameter of the tumor, and ‘d’ represents the small diameter. In some cases, tumor regression and/or percent change in tumor volume was calculated using the formula: ((T−T0)/T0)×100 where ‘T’ represents mean tumor volume of the treated group at a particular day, and ‘T0’ represents mean tumor volume of the same treated group at initiation of treatment. Statistical analysis was determined by the rank sum test and One Way Anova and a post-hoc Bonferroni t-test (SigmaStat, version 2.0, Jandel Scientific, San Francisco, Calif.). Differences between groups were considered to be significant when the probability value (p) was ≦0.05.

[2] = test system: AsPC1 human pancreatic carcinoma xenografts; test: Antitumor efficacy in AsPC1 pancreatic xenografts in nude mice; assay type: in vivo
Experimental: Female (athymic nu/nu) nude mice were obtained from Charles River Laboratories (Wilmington, Mass.), while female SCID-beige mice were purchased from Taconic (Germantown, N.Y.). Mice were used when they were approximately 8-12 weeks old (nudes) or 8-10 weeks old (SCID-beige), and weighed approximately 23-25 grams. The health of all animals was determined daily by gross observation of experimental animals and by the analyses of blood samples of sentinel animals that were housed on the shared shelf racks. All animals were allowed to acclimate and recover from any shipping related stress for a minimum of 72 hours prior to experimental use. Autoclaved water and irradiated food [5058-ms Pico chow (mouse) Purina, Richmond, Ind.] were provided ad libitum, and the animals were maintained on a 12 hour light and dark cycle. Cages, bedding and water bottles were autoclaved before use and were changed weekly. MiaPaca2, AsPC1 and BxPC3 human pancreatic carcinoma cells were purchased from ATCC (Manassas, Va.). BxPC3 and AsPC1 cells were grown in RPMI medium and MiaPaca2 cells were grown in Dulbecco's Modified Essential Medium (DMEM). All culture media were supplemented with 10% (v/v) FBS and 1% (v/v) […]. […] SCID-biege mice were implanted se with 5×10^6 BxPC3 cells in a 1:1 mixture of matrigel:PBS in a volume of 0.2 ml per mouse in the right hind flank on May 22, 2007. […] Formulated compound and vehicle were stored at 4° C. and prepared weekly. The suspension was mixed vigorously prior to administration. Gemcitabine (Gemzar®, Eli Lilly and Company, Indianapolis, Ind., USA) was reconstituted with sterile saline to yield a stock solution of 38 mg/ml for the entire 3-4 week study. […] Nude mice implanted with MiaPaca2 or AsPC1 xenografts were randomized on day 17 and day 9 post cell implant, respectively. SCID-beige mice bearing BxPC3 xenografts were randomized 8 days post implant. […] Treatment for the MiaPaca2 study began on Feb. […] For the MiaPaca2 and AsPC1 studies, qd Compound (1) suspension or q3d gemcitabine treatment ended on day 37 post tumor cell implant, whereas for the BxPC3 study, qd Compound (1) suspension or q3d gemcitabine treatment ended on day 35 post tumor cell implant. For intermittent dosing of Compound (1) suspension in the AsPC1 study using the 7+/7− schedule×2 cycles, treatment ended on day 15, was reinitiated on day 23, and finally ended day 29. For intermittent dosing using the 3+/4− schedule×4 cycles, treatment ended on day 11, was reinitiated on day 16, ended day 18, was reinitiated on day 23, ended day 25, was reinitiated day 30, and finally ended on day 32. In the first combination group, daily Compound (1) was given simultaneously with q3d gemcitabine for a total of four weeks. For the remaining combination groups, Compound (1) and gemcitabine were given sequentially rather than simultaneously. In group 8 gemcitabine was dosed q3d during the 1st and 3rd weeks, whereas Compound (1) was given daily during the 2nd and 4th weeks only. In group 9, the order of compound dosing was reversed, with Compound (1) suspension given daily during the 1st and 3rd weeks, whereas gemcitabine was given q3d during the 2nd and 4th weeks. In group 10, gemcitabine was dosed q3d during the 1st and 2nd weeks, whereas Compound (1) was given daily during the 3rd and 4th weeks. In group 11, the order of compound dosing was reversed, with Compound (1) given daily during the 1st and 2nd weeks, and gemcitabine dosed q3d for the 3rd and 4th weeks. […]

## CC(C)(C(=O)NCC(F)(F)C(F)(F)F)C(=O)N[C@@H]1C(=O)Nc2ccccc2-c2ccccc21 [Compound (1), 2,2-Dimethyl-N—((S)-6-oxo-6,7-dihydro-5H-dibenzo[b,d]azepin-7-yl)-N′-(2,2,3,3,3-pentafluoro-propyl)-malonamide]
[1]; 3 mg/kg po qd, day 35
  % TGI: 72%
[1]; 10 mg/kg po qd, day 35
  % TGI: 82%
[1]; 10 mg/kg po, 3+/4− schedule
  % TGI: 56%
[1]; 20 mg/kg po, 7+/7− schedule
  % TGI: 63%
[1]; 23 mg/kg po, 3+/4− schedule
  % TGI: 64%
[1]; 30 mg/kg po, 3+/4− schedule
  % TGI: 50%
[2]; 3 mg/kg po qd × 28 days, day 37
  % TGI: 49%
[2]; 10 mg/kg po qd × 28 days, day 37
  % TGI: 58%
[2]; 10 mg/kg po, 3+/4− × 4 cycles
  % TGI: 32%
[2]; 10 mg/kg po, 7+/7− × 2 cycles
  % TGI: 41%
